Reference: patent EP1092007B1, “A NEW IMPROVED ENZYME CONTAINING GRANULE” (Novozymes A/S, priority 1998, dated 2000)

assay: Measurement of constant humidity values for coating compounds; type: physicochemical; conditions: 20°C; % RH of air over saturated aqueous solution
Procedure: The term "constant humidity" (in the context of the invention sometimes abbreviated as CH) of a compound or substance is to be understood as the % RH of atmospheric air in equilibrium with a saturated aqueous solution of said compound in contact with the solid phase of said compound, all confined within a closed space at a given temperature. […] Accordingly CH20 °C =50% for a compound means that air with a 50% humidity will be in equilibrium with a saturated aqueous solution of the compound at 20°C. Accordingly the term constant humidity is a measure of the hygroscopic properties of a compound.
The constant humidity of water soluble compound coating materials were measured by preparing a saturated aqueous solution with excess of solid phase of the compound in an open beaker.

Compared with `N.O=P(O)(O)O` [(NH4)H2PO4], `O=P([O-])(O)O.[K+]` [KH2PO4] is lower in “CH20°C (constant humidity)” value: 93.1% for the first, 92% for the second.

Compared with `O=S(=O)([O-])O.[K+]` [KHSO4], `O=S(=O)([O-])[O-].[Zn+2]` [ZnSO4] is higher in “CH20°C (constant humidity)” value: 86% for the first, 90% for the second.

First: O=P([O-])([O-])O.[Na+].[Na+] [Na2HPO4]
Second: O=S(=O)([O-])[O-].[Na+].[Na+] [Na2SO4, sodium sulfate]
The “CH20°C (constant humidity)” value of the first is higher: 95% for the first, 93% for the second.

same assay, conditions: 25°C

First: N.N.O=S(=O)(O)O [Ammonium sulfate]
Second: O=S(=O)([O-])[O-].[Na+].[Na+] [Na2SO4, sodium sulfate]
The “Constant humidities at 25°C” value of the first is lower: 79 for the first, 93 for the second.

First: O=C([O-])CC(O)(CC(=O)[O-])C(=O)[O-].[Na+].[Na+].[Na+] [sodium citrate]
Second: O=C[O-].[Na+] [sodium formiate]
The “Constant humidities at 25°C” value of the first is higher: 86 for the first, 56 for the second.

same assay, conditions: 25°C; % RH of air over saturated aqueous solution

Compared with `O=S(=O)([O-])[O-].[K+].[K+]` [Example K2SO4, K2SO4], `O=P([O-])([O-])[O-].[Na+].[Na+].[Na+]` [Na3PO4] is lower in “CH25°C (constant humidity)” value: 99% for the first, 92% for the second.

With `O=C([O-])CC(O)(CC(=O)[O-])C(=O)[O-].[Na+].[Na+].[Na+]` [sodium citrate] the “CH25°C (constant humidity)” value was 86%.
